Laboratory results as given in patent publication US20100298141A1, “SUBSTITUTED PYRIDINE N-OXIDE HERBICIDES” (E. I. DU PONT DE NEMOURS AND COMPANY, priority 2007, published 2010).

What was measured:
[1] = test system: crabgrass; experiment: Test C pre-/postemergence test; type: in vivo, Digitaria sanguinalis
Procedure, shortened: (§1)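 Seeds were planted and treated preemergence with test chemical in a non-phytotoxic solvent mixture containing surfactant. Postemergence applications of the same formulation went onto plants 2 to 18 cm tall (1- to 4-leaf stage). A dash marks no test result.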

[2] = test system: Italian ryegrass; experiment: Test C pre-/postemergence test; type: in vivo, Lolium multiflorum
Procedure, shortened: as §1

[3] = test system: crabgrass; experiment: Test A pre-/postemergence greenhouse test; type: in vivo, Digitaria sanguinalis; conditions: for Plant response rating, Crabgrass, Large: 0 to 100 scale where 0 is no effect and 100 is complete control; for Crabgrass, Large plant response rating: 0 to 100 scale
Procedure, shortened: (§2)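 Sowing in loam/sand; same-day pre (directed soil spray) and post (foliar, 1–2 leaf, 2–10 cm) treatment with surfactant-containing non-phytotoxic solvent formulation; ~10 days in greenhouse; eye-scored injury against untreated plants.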

[4] = test system: Surinam grass; experiment: Test C pre-/postemergence test; type: in vivo, Brachiaria decumbens
Procedure, shortened: as §1

[5] = test system: giant foxtail; experiment: Test A pre-/postemergence greenhouse test; type: in vivo, Setaria faberi; conditions: for Plant response rating, Foxtail, Giant: 0 to 100 scale where 0 is no effect and 100 is complete control; for Foxtail, Giant plant response rating: 0 to 100 scale
Procedure, shortened: as §2

[6] = test system: barnyardgrass; experiment: Test C flooded paddy test; type: in vivo, Echinochloa crus-galli; conditions: Flood
Procedure, shortened: (§3)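 Visual injury ratings against untreated controls, taken 13 to 15 days after compound was added to paddy water standing 3 cm above the soil.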

[7] = test system: cocklebur; experiment: Test C pre-/postemergence test; type: in vivo, Xanthium strumarium; conditions: for Plant response rating, Cocklebur: scale 0 to 100, 0 no effect, 100 complete control
Procedure, shortened: as §1

[8] = test system: soybean; experiment: Test C pre-/postemergence test; type: in vivo, Glycine max
Procedure, shortened: as §1

[9] = test system: morningglory; experiment: Test A pre-/postemergence greenhouse test; type: in vivo, Ipomoea spp.; conditions: for Plant response rating, Morningglory: 0 to 100 scale where 0 is no effect and 100 is complete control; for Morningglory plant response rating: 0 to 100 scale
Procedure, shortened: as §2

[10] = test system: barnyardgrass; experiment: Test A pre-/postemergence greenhouse test; type: in vivo, Echinochloa crus-galli; conditions: for Plant response rating, Barnyardgrass: 0 to 100 scale where 0 is no effect and 100 is complete control; for Barnyardgrass plant response rating: 0 to 100 scale
Procedure, shortened: as §2

[11] = test system: pigweed; experiment: Test C pre-/postemergence test; type: in vivo, Amaranthus retroflexus
Procedure, shortened: as §1

[12] = test system: kochia; experiment: Test C pre-/postemergence test; type: in vivo, Kochia scoparia
Procedure, shortened: as §1

[13] = test system: umbrella sedge; experiment: Test C flooded paddy test; type: in vivo, Cyperus difformis; conditions: Flood
Procedure, shortened: as §3

[14] = test system: common (oilseed) sunflower; experiment: Test C pre-/postemergence test; type: in vivo, Helianthus annuus
Procedure, shortened: as §1

[15] = test system: Goosegrass; experiment: Test C pre-/postemergence test; type: in vivo, Eleusin indica
Procedure, shortened: as §1

[16] = test system: lambsquarters; experiment: Test C pre-/postemergence test; type: in vivo, Chenopodium album; conditions: Postemergence; for Plant response rating, Lambsquarters: scale 0 to 100, 0 no effect, 100 complete control
Procedure, shortened: as §1

[17] = test system: bermudagrass; experiment: Test C pre-/postemergence test; type: in vivo, Cynodon dactylon
Procedure, shortened: as §1

[18] = 62 g ai/ha, Preemergence, scale 0 to 100
[19] = 125 g ai/ha, preemergence, scale 0 (no effect) to 100 (complete control)
[20] = Postemergence, 62 g ai/ha, scale 0 to 100, 0 no effect, 100 complete control
[21] = Postemergence, 125 g ai/ha, scale 0 to 100, 0 no effect, 100 complete control
[22] = Postemergence, 250 g ai/ha, scale 0 to 100, 0 no effect, 100 complete control
[23] = Preemergence, 31 g ai/ha, scale 0 to 100 (0 no effect, 100 complete control)
[24] = preemergence, 250 g ai/ha, scale 0 (no effect) to 100 (complete control)
[25] = Postemergence, 500 g ai/ha, 0 is no effect, 100 is complete control
[26] = Preemergence, 125 g ai/ha, 0 no effect, 100 complete control
[27] = 62 g ai/ha, scale 0 to 100 (0 no effect, 100 complete control)
[28] = 250 g ai/ha, scale 0 to 100, 0 no effect, 100 complete control, 13 to 15 days

## CCn1nc(C(F)(F)F)c(C[S+]([O-])c2cccc[n+]2[O-])c1OCC(F)(F)F (racemic) [Compound 65]
[1]; [18]
  Crabgrass, Large plant response rating: 100
[1]; [19]
  Crabgrass, Large plant response rating: 100
[1]; Postemergence, 31 g ai/ha
  Plant response rating (0 to 100), Crabgrass, Large: 0
[1]; [20]
  Plant response rating, Crabgrass, Large: 0
[1]; [21]
  Plant response rating, Crabgrass, Large: 0
[1]; [22]
  Plant response rating, Crabgrass, Large: 60
[1]; [23]
  Plant response rating, Crabgrass, Large: 60
[1]; [24]
  Crabgrass, Large plant response rating: 100
[2]; [18]
  Ryegrass, Italian plant response rating: 100
[2]; [19]
  Ryegrass, Italian plant response rating: 100
[2]; Postemergence, 31 g ai/ha
  Plant response rating (0 to 100), Ryegrass, Italian: 0
[2]; Postemergence, 62 g ai/ha
  Plant response rating (0 to 100), Ryegrass, Italian: 0
[2]; [21]
  Plant response rating, Ryegrass, Italian: 90
[2]; [22]
  Plant response rating, Ryegrass, Italian: 95
[2]; [23]
  Plant response rating, Ryegrass, Italian: 50
[2]; [24]
  Ryegrass, Italian plant response rating: 100
[3]; Postemergence, 125 g ai/ha
  Plant response rating, Crabgrass, Large: 80
[3]; [25]
  Crabgrass, Large plant response rating: 90
[3]; [26]
  Crabgrass, Large plant response rating: 90
[3]; Preemergence, 500 g ai/ha
  Plant response rating, Crabgrass, Large: 100
[4]; [18]
  Surinam Grass plant response rating: 100
[4]; [19]
  Surinam Grass plant response rating: 100
[4]; Postemergence, 31 g ai/ha
  Plant response rating (0 to 100), Surinam Grass: 0
[4]; Postemergence, 62 g ai/ha
  Plant response rating (0 to 100), Surinam Grass: 0
[4]; [21]
  Plant response rating, Surinam Grass: 0
[4]; [22]
  Plant response rating, Surinam Grass: 25
[4]; [23]
  Plant response rating, Surinam Grass: 80
[4]; [24]
  Surinam Grass plant response rating: 100
[5]; Postemergence, 125 g ai/ha
  Plant response rating, Foxtail, Giant: 90
[5]; [25]
  Foxtail, Giant plant response rating: 100
[5]; [26]
  Foxtail, Giant plant response rating: 100
[5]; Preemergence, 500 g ai/ha
  Plant response rating, Foxtail, Giant: 100
[6]; [27]
  Plant response rating, Barnyardgrass: 55
[6]; [28]
  Plant response rating, Barnyardgrass: 85
[7]; [18]
  Cocklebur plant response rating: 0
[7]; Postemergence, 31 g ai/ha
  Plant response rating (0 to 100), Cocklebur: 0
[7]; Postemergence, 62 g ai/ha
  Plant response rating, Cocklebur: 0
[7]; Postemergence, 125 g ai/ha
  Plant response rating, Cocklebur: 0
[7]; Postemergence, 250 g ai/ha
  Plant response rating, Cocklebur: 0
[7]; [24]
  Cocklebur plant response rating: 90
[8]; Postemergence, 31 g ai/ha
  Plant response rating (0 to 100), Soybean: 20
[8]; Postemergence, 62 g ai/ha
  Plant response rating (0 to 100), Soybean: 50
[8]; [21]
  Plant response rating, Soybean: 60
[8]; [22]
  Plant response rating, Soybean: 90
[8]; [23]
  Plant response rating, Soybean: 5
[9]; Postemergence, 125 g ai/ha
  Plant response rating, Morningglory: 60
[9]; [25]
  Morningglory plant response rating: 90
[9]; [26]
  Morningglory plant response rating: 60
[9]; Preemergence, 500 g ai/ha
  Plant response rating, Morningglory: 100
[10]; Postemergence, 125 g ai/ha
  Plant response rating, Barnyardgrass: 90
[10]; [25]
  Barnyardgrass plant response rating: 90
[10]; [26]
  Barnyardgrass plant response rating: 80
[10]; Preemergence, 500 g ai/ha
  Plant response rating, Barnyardgrass: 100
[11]; [18]
  Pigweed plant response rating: 85
[11]; Postemergence, 31 g ai/ha
  Plant response rating (0 to 100), Pigweed: 0
[11]; Postemergence, 62 g ai/ha
  Plant response rating (0 to 100), Pigweed: 0
[11]; [21]
  Plant response rating, Pigweed: 0
[11]; [22]
  Plant response rating, Pigweed: 5
[11]; [23]
  Plant response rating, Pigweed: 85
[11]; [24]
  Pigweed plant response rating: 100
[12]; [18]
  Kochia plant response rating: 100
[12]; [19]
  Kochia plant response rating: 100
[12]; Postemergence, 31 g ai/ha
  Plant response rating (0 to 100), Kochia: 0
[12]; [20]
  Plant response rating, Kochia: 0
[12]; [21]
  Plant response rating, Kochia: 0
[12]; [22]
  Plant response rating, Kochia: 0
[12]; [23]
  Plant response rating, Kochia: 100
[12]; [24]
  Kochia plant response rating: 100
[13]; [27]
  Plant response rating, Sedge, Umbrella: 60
[13]; [28]
  Plant response rating, Sedge, Umbrella: 100
[14]; [18]
  Sunflower plant response rating: 50
[14]; [19]
  Sunflower plant response rating: 100
[14]; [23]
  Plant response rating, Sunflower: 45
[15]; [18]
  Goosegrass plant response rating: 100
[15]; [19]
  Goosegrass plant response rating: 100
[15]; Postemergence, 31 g ai/ha
  Plant response rating (0 to 100), Goosegrass: 0
[15]; [20]
  Plant response rating, Goosegrass: 0
[15]; [21]
  Plant response rating, Goosegrass: 0
[15]; [22]
  Plant response rating, Goosegrass: 70
[15]; [23]
  Plant response rating, Goosegrass: 100
[15]; [24]
  Goosegrass plant response rating: 100
[16]; 31 g ai/ha
  Plant response rating (0 to 100), Lambsquarters: 0
[16]; 62 g ai/ha
  Plant response rating, Lambsquarters: 0
[16]; 125 g ai/ha
  Plant response rating, Lambsquarters: 50
[16]; 250 g ai/ha
  Plant response rating, Lambsquarters: 50
[17]; 62 g ai/ha, Preemergence, scale 0 to 100 (0 no effect, 100 complete control)
  Bermudagrass plant response rating: 100
[17]; [19]
  Bermudagrass plant response rating: 100
[17]; Postemergence, 31 g ai/ha
  Plant response rating (0 to 100), Bermudagrass: 0
[17]; [20]
  Plant response rating, Bermudagrass: 0
[17]; [21]
  Plant response rating, Bermudagrass: 70
[17]; [22]
  Plant response rating, Bermudagrass: 90
[17]; [23]
  Plant response rating, Bermudagrass: 100
[17]; [24]
  Bermudagrass plant response rating: 100
